Literature values as cited in patent US6703022B2, “Composition and method useful for treating colic” (Lev Laboratories, Inc., priority 1999, dated 2004).

Tested on: mice
Conditions: at certain doses

## C=CCc1ccc(OC)cc1 [Estragole, 1-allyl-4-methoxybenzene]
  mutagenic and carcinogenic effects: mutagenic and carcinogenic effects
